pIC50: −log10 of the molar value.

For 13 molecules, ED50 and IC50 results are on record in patent US4316839A, “Imidazodiazepine derivatives” (Hoffman-La Roche Inc., priority 1979, dated 1982).

The subject of test [1] is diazepam effect in the pentetrazole test. Nature of the test: pentetrazole test: antagonism of the diazepam effect in mice. It counts as in vivo. The conditions noted are these: Mus musculus, po; mice; diazepam 5 mg/kg i.p. 1 hour and test compound 15 min before pentetrazole 120 mg/kg i.p. How it is done: This property was used as a basis for the test described hereinafter which permits the determination of compounds which are capable of antagonising the central properties of 1,4-benzodiazepines which have tranquillising activity.
The antagonistic activity of the compounds tested, i.e. their ability to counteract the activity of diazepam in the pentetrazole test, is determined by counting the mice which suffer spasmodic seizures in this test.
(§1) In the following Table there are compiled the results which have been obtained with representative compounds of formula I. The ED50 value is given for each compound listed in the Table. The ED50 is the amount of the test compound in mg/kg (p.o.) which counteracts in 50% of the animals the diazepam effect in the foregoing test. Moreover, the Table contains the IC50 value (defined hereinbefore) for all test compounds listed therein as well as details concerning the acute toxicity of certain compounds (LD50 in mg/kg following single oral administration to mice).

In test [2] the target is specific benzodiazepine receptors in the cerebral cortex. Nature of the test: inhibition of the binding of tritiated diazepam at the specific benzodiazepine receptors in the cerebral cortex. As for the experimental part: The affinity of compounds of formula I to the central benzodiazepine receptors was determined according to the method described in Life Science 20, 2101-2110 (1977) and Science 198, 849-851 (1977). According to this method, the inhibition of the binding of tritiated diazepam at the specific benzodiazepine receptors in the cerebral cortex by test substances is ascertained. The IC50 ("50% inhibiting concentration") is that concentration of the test substance which brings about a 50 percent inhibition of the specific binding of the tritiated diazepam at the specific benzodiazepine receptors in the cerebral cortex.
as §1

The mark [3] stands for this setting: compounds of formula I with A = group (a).
Setting [4] is: thieno derivatives, A = group (b).

Regarding `CC(C)OC(=O)c1ncn2c1CN(C)C(=O)c1ccccc1-2` [Example 25, isopropyl 5,6-dihydro-5-methyl-6-oxo-4H-imidazo[1,5-a][1,4]benzodiazepine 3-carboxylate], it took a dose of 7 mg/kg to reach the 50% effect level in test [1] (ED50). For the same molecule, the pIC50 (commonly the IC50 on a negative log10 scale, so that one unit is a factor of ten) in test [2] (setting [3]) was 4.92.
With `CCOC(=O)c1ncn2c1[C@@H]1CCCN1C(=O)c1c(C)cccc1-2` [Example 29, ethyl (S)-11,12,13,13a-tetrahydro-8-methyl-9-oxo-9H-imidazo[1,5-a]pyrrolo[2,1-c]benzodiazepine-1-carboxylate], the ED50 (as a rule, the midpoint of the dose-response relation) in test [1] came out at 6.5 mg/kg. Further, the pIC50 in test [2] (setting [3]) was 5.30.
On to `CCOC(=O)c1ncn2c1CN(C)C(=S)c1cc(F)ccc1-2` [Example 6, ethyl 8-fluoro-5,6-dihydro-5-methyl-6-thioxo-4H-imidazo[1,5-a][1,4]benzodiazepine-3-carboxylate], for which the ED50 in test [1] came to 6.3 mg/kg. This molecule had a pIC50 in test [2] (setting [3]) of 5.60.
On to `CN1Cc2c(C#N)ncn2-c2ccc(F)cc2C1=O` [Example 7, 8-fluoro-5,6-dihydro-5-methyl-6-oxo-4H-imidazo[1,5-a][1,4]benzodiazepine-3-carbonitrile], for which the ED50 in test [1] came out at 4.2 mg/kg. In addition, the pIC50 in test [2] (setting [3]) is 4.03.
On to `CCOC(=O)c1ncn2c1CN(C)C(=O)c1sccc1-2` [Example 36, ethyl 5,6-dihydro-5-methyl-6-oxo-4H-imidazo[1,5-a]thieno[2,3-f][1,4]diazepine-3-carboxylate], for which the ED50 in test [1] stood at 12.6 mg/kg. This molecule also gave a pIC50 in test [2] (setting [4]) of 8.96.
In turn, `CCOC(=O)c1ncn2c1CN(C)C(=S)c1ccccc1-2` [Example 27, ethyl 5,6-dihydro-5-methyl-6-thioxo-4H-imidazo[1,5-a][1,4]benzodiazepine-3-carboxylate] yielded an ED50 in test [1] of 8.9 mg/kg. This molecule had a pIC50 in test [2] (setting [3]) of 5.22.
In the case of `CCOC(=O)c1ncn2c1C1C=CCN1C(=O)c1ccccc1-2` (racemic) [Example 43, ethyl (R,S)-11,13a-dihydro-9-oxo-9H-imidazo[1,5-a]pyrrolo[2,1-c][1,4]benzodiazepine-1-carboxylate], the median effective dose (ED50) in test [1] was found to be 3.9 mg/kg. Besides, the pIC50 in test [2] (setting [3]) is 5.64.
The molecule `CCOC(=O)c1ncn2c1[C@@H]1CCCN1C(=O)c1cc(F)ccc1-2` [Example 12, ethyl (S)-7-fluoro-11,12,13,13a-tetrahydro-9-oxo-9H-imidazo[1,5-a]pyrrolo[2,1-c][1,4]benzodiazepine-1-carboxylate] came in with an ED50 in test [1] of 8.9 mg/kg. The negative logarithm of the IC50 (pIC50) in test [2] (setting [3]) was 5.22.
Taken in the same sequence, the figures for `COC(=O)c1ncn2c1CN(C)C(=O)c1cc(F)ccc1-2` [Example 3, methyl 8-fluoro-5,6-dihydro-5-methyl-6-oxo-4H-imidazo[1,5-a][1,4]benzodiazepine-3-carboxylate] were 4.9 mg/kg and 5.22.
Take `CCOC(=O)c1ncn2c1CN(C)C(=O)c1c(Cl)cccc1-2` [Example 13, ethyl 7-chloro-5,6-dihydro-5-methyl-6-oxo-4H-imidazo[1,5-a][1,4]benzodiazepine-3-carboxylate]: the ED50 in test [1] amounted to 0.48 mg/kg. In test [2] (setting [3]), the negative-log IC50 (pIC50) is 5.52.
`N#Cc1ncn2c1[C@@H]1CCCN1C(=O)c1ccccc1-2` [Example 42, (S)-11,12,13,13a-tetrahydro-9-oxo-9H-imidazo[1,5-a]pyrrolo[2,1-c][1,4]benzodiazepine-1-carbonitrile]: it took a dose of 12.1 mg/kg to reach the 50% effect level in test [1] (ED50). Besides, the pIC50 in test [2] (setting [3]) is 4.51.
`COC(=O)c1ncn2c1CN(C)C(=O)c1sccc1-2` [Example 37, methyl 5,6-dihydro-5-methyl-6-oxo-4H-imidazo[1,5-a]thieno[2,3-f][1,4]diazepine-3-carboxylate]: the 50% effect level in test [1] (ED50) was put at a dose of 0.83 mg/kg. In test [2] (setting [4]), this molecule gave a pIC50 of 8.92.
In test [1], `CC(C)OC(=O)c1ncn2c1[C@@H]1CCCN1C(=O)c1ccccc1-2` [Example 33, isopropyl (S)-11,12,13,13a-tetrahydro-9-oxo-9H-imidazo[1,5-a]pyrrolo[2,1-c][1,4]benzodiazepine-1-carboxylate] came in with an ED50 of 18.6 mg/kg. For the same molecule, the pIC50 in test [2] (setting [3]) was 5.52.
